Test results published in patent publication US7026357B2, “Diphenylurea compounds” (Les Laboratoires Servier, priority 2000, dated 2006).

Test system: male CD-1 mice
Assay: Test in the mouse of aggressiveness induced by isolation
Type: in vivo
Details: isolated male CD-1 mice; subcutaneous administration; 30 minutes before test; three minutes observation
From the text: The animals used are male CD-1 mice. On arrival, the mice are isolated in individual cages with free access to food and drink. After a period of isolation of one month, pairs of mice that are constant in their aggressiveness are selected by observation of the latent period, the number and the duration of attacks when they are placed in each other's presence. The test takes place once a week. On the day of the test, each mouse of the pair of mice (resident mouse and intruder mouse) is given a subcutaneous injection of carrier (control animals) or of test product (treated animals) in a volume of 10 ml/kg. After 30 minutes, the intruder mouse is introduced into the cage of the resident mouse. The latent period of the first attack and the number and duration of attacks are then measured for a period of three minutes. A product is considered as specifically anti-aggressive when it reduces the number and the duration of attacks at non-sedative doses.

With `Cc1ccc(NC(=O)Nc2cccc(N3CCN(CC4COc5ccccc5O4)CC3)c2)cc1Cl.Cl` (centres unmarked) [Example 6, N-(3-Chloro-4-methylphenyl)-N′-{3-[4-(2,3-dihydro-1,4-benzodioxin-2-ylmethyl)-1-piperazinyl]phenyl}urea hydrochloride] the “inhibitory dose 50 (ID50), number and duration of attacks” value was 2.5 mg/kg.

Target: T1, 5-HT2c receptors (Rattus norvegicus, UniProt P08909)
T1 construct: Male Wistar rats weighing from 120 to 140 g on the day of the experiment; from tissue; host or cells: whole animal (male Wistar rat), endogenous receptor
T1 sequence (P08909 33-460): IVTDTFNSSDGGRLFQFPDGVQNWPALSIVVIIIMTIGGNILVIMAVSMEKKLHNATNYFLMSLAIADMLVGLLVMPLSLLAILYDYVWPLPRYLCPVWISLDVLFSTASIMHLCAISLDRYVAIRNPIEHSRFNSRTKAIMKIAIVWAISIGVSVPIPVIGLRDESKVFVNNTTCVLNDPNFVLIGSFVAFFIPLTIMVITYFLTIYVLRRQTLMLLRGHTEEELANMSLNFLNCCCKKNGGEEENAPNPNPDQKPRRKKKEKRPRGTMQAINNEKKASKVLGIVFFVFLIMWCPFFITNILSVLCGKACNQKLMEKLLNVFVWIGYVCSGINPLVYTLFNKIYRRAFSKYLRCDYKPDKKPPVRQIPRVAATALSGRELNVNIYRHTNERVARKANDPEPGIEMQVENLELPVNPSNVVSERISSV
Assay: Penile erection test in the rat (erections induced by RO 60-0175)
Type: in vivo
Details: male Wistar rats; RO 60-0175 1.25 mg/kg s.c. 30 min after test compound; erections counted during 30 minutes
Experimental: The test allows the evaluation of the capacity of pharmacological agents to inhibit penile erections caused by the administration of a 5-HT2c selective agonist, RO 60-0175.
Male Wistar rats weighing from 120 to 140 g on the day of the experiment are placed individually into plexiglass observation boxes immediately after having been administered the test compound or the carrier. Thirty minutes later, the animals are administered RO 60-0175 (1.25 mg/kg, subcutaneous route) and the number of erections that occur during the 30 minutes that follow is counted.

In the case of `Cc1ccc(NC(=O)Nc2cccc(N3CCN(CC4COc5ccccc5O4)CC3)c2)cc1Cl.Cl` (centres unmarked) [Example 6, N-(3-Chloro-4-methylphenyl)-N′-{3-[4-(2,3-dihydro-1,4-benzodioxin-2-ylmethyl)-1-piperazinyl]phenyl}urea hydrochloride], the “inhibitory dose 50 (ID50), inhibition of penile erections” value is reported as 0.7 mg/kg.

Test system: Male NMRI mice
Assay: Marble-burying test in the mouse
Type: in vivo
Details: 0.5 h, 24 marbles, 30 minutes' free exploration, read-out: effective dose 50 (ED50), inhibition of marble-burying
From the text: This test allows evaluation of the capacity of pharmacological agents to inhibit the spontaneous marble-burying behaviour in mice, the inhibition being predictive of antidepressant and/or anti-impulsive action. Male NMRI mice weighing from 20 to 25 g on the day of the experiment are placed individually in Macrolon boxes containing 5 cm of sawdust and covered with a perforated plexiglass plate. Twenty four “tiger's eye” glass marbles are evenly distributed on the sawdust at the periphery of the box. At the end of 30 minutes' free exploration, the animals are removed from the box and the number of buried marbles is counted.

Compound `Cc1ccc(NC(=O)Nc2cccc(N3CCN(CC4COc5ccccc5O4)CC3)c2)cc1Cl.Cl` (centres unmarked) [Example 6, N-(3-Chloro-4-methylphenyl)-N′-{3-[4-(2,3-dihydro-1,4-benzodioxin-2-ylmethyl)-1-piperazinyl]phenyl}urea hydrochloride] has an ED50 of 0.4 mg/kg.

Test system: not given
Assay: not given
Details: not given

First: COc1ccc(NC(=O)Nc2ccc(C)c(Cl)c2)cc1N1CCN(C)CC1.Cl
Second: Cc1ccc(NC(=O)Nc2ccc(C)c(N3CCN(C)CC3)c2)cc1Cl.Cl
The melting point of the first is lower: 206 to 208 °C for the first, 229 to 231 °C for the second.

First: Cc1ccc(NC(=O)Nc2cccc(CCC3=NCCN3)c2)cc1Cl.Cl
Second: Cc1ccc(NC(=O)Nc2cccc(CC3=NCCN3)c2)cc1Cl.Cl
The melting point of the first is lower: 212 to 214 °C for the first, 227 to 229 °C for the second.

Compared with `Cc1ccc(NC(=O)Nc2cccc(N3CCN(CC4COc5ccccc5O4)CC3)c2)cc1Cl.Cl` (centres unmarked) [Example 6, N-(3-Chloro-4-methylphenyl)-N′-{3-[4-(2,3-dihydro-1,4-benzodioxin-2-ylmethyl)-1-piperazinyl]phenyl}urea hydrochloride], `Cl.O=C(Nc1cccc(N2CCN(CC3COc4ccccc4O3)CC2)c1)Nc1ccc(F)c(Cl)c1` (centres unmarked) is lower in melting point: 180 to 185 °C for the first, 132 to 136 °C for the second.

First: Cc1ccc(NC(=O)Nc2cccc(C(C)(C)C3=NCCN3)c2)cc1Cl.Cl
Second: Cc1ccc(NC(=O)Nc2cccc(C(C)C3=NCCN3)c2)cc1Cl.Cl (centres unmarked)
The melting point of the first is higher: 232 to 233 °C for the first, 100 to 102 °C for the second.

Compared with `COc1ccc(NC(=O)Nc2ccc(F)c(Cl)c2)cc1N1CCN(CC2COc3ccccc3O2)CC1.Cl` (centres unmarked), `COc1ccc(NC(=O)Nc2ccc(C)c(Cl)c2)cc1N1CCN(CC2COc3ccccc3O2)CC1.Cl` (centres unmarked) is higher in melting point: 120 to 130 °C for the first, 193 to 197 °C for the second.

First: Cl.Cl.O=C(Nc1cccc(N2CCN(CC3COc4ccccc4O3)CC2)c1)N1CCc2c1ccc1ccccc21 (centres unmarked)
Second: Cl.Cl.O=C(Nc1cccc(N2CCN(CC3COc4ccccc4O3)CC2)c1)N1CCc2cc(F)c(Cl)cc21 (centres unmarked)
The melting point of the first is lower: 194 to 196 °C for the first, 202 to 204 °C for the second.

First: Cc1ccc(NC(=O)Nc2cccc(CCc3c[nH]cn3)c2)cc1Cl.Cl
Second: Cc1ccc(NC(=O)Nc2ccc3c(c2)CC(c2c[nH]cn2)C3)cc1Cl.Cl (centres unmarked)
The melting point of the first is higher: 237 to 239 °C for the first, 235 to 237 °C for the second.

First: Cc1ccc(NC(=O)Nc2ccc(C)c(NC3=NCCN3)c2)cc1Cl.Cl
Second: Cc1ccc(NC(=O)Nc2ccc(Cl)c(NC3=NCCN3)c2)cc1Cl.Cl
The melting point of the first is lower: 252 to 254 °C for the first, 255 to 257 °C for the second.

First: Cc1ccc(NC(=O)Nc2ccc3c(c2)CC(c2c[nH]cn2)C3)cc1C.Cl (centres unmarked)
Second: Cc1ccc(NC(=O)Nc2ccc3c(c2)CC(c2c[nH]cn2)CC3)cc1Cl.Cl (centres unmarked)
The melting point of the first is higher: 232 to 234 °C for the first, 206 to 208 °C for the second.

Compared with `COc1ccc(NC(=O)Nc2ccc(C)c(C)c2)cc1N1CCN(CC2COc3ccccc3O2)CC1.Cl.Cl` (centres unmarked), `Cc1ccc(NC(=O)Nc2cccc(N3CCN(CC4COc5ccccc5O4)CC3)c2)cc1C.Cl` (centres unmarked) is lower in melting point: 234 to 236 °C for the first, 228 to 230 °C for the second.

Compared with `Cc1cc2c(cc1Cl)N(C(=O)Nc1ccc(N3CCN(CC4COc5ccccc5O4)CC3)cc1)CC2.Cl.Cl` (centres unmarked), `Cc1ccc(NC(=O)Nc2ccc3c(c2)CN(C2=NCCN2)CC3)cc1Cl.Cl` is higher in melting point: 174 to 176 °C for the first, 237 to 239 °C for the second.

First: Cc1ccc(NC(=O)Nc2cccc(NC3=NCCN3)c2)cc1Cl.Cl
Second: Cc1ccc(NC(=O)Nc2ccc3c(c2)C(c2c[nH]cn2)CCC3)cc1Cl.Cl (centres unmarked)
The melting point of the first is lower: 180 to 185 °C for the first, 255 to 257 °C for the second.

Work on `CSc1ccc(NC(=O)Nc2ccc3c(c2)CC(c2c[nH]cn2)C3)cc1.Cl` (centres unmarked) yielded a melting point of 243 to 245 °C.

With `Cc1ccc(NC(=O)Nc2ccc3c(c2)C(c2c[nH]cn2)CCO3)cc1Cl.Cl` (centres unmarked) the melting point was > 260 °C.
